# Test results published in ChEMBL document CHEMBL4680217, “Discovery of PROTAC BCL-X degraders as potent anticancer agents with low on-target platelet toxicity” (Eur J Med Chem, 2020).
# Active and inactive are the calls of the source. The calls are words filed in the database; no cut-off is given here.
# Columns and labels:
# [1] = Selectivity index, ratio of IC50 for human platelet to IC50 for human MOLT-4 cells
# [2] = system: MOLT-4; experiment: Induction of apoptosis in human MOLT-4 cells assessed as increase in cleaved caspase-3 expression measured after 16 hrs by immunoblotting analysis; format: functional, cell-based
# [3] = system: NCI-H146; experiment: Antiproliferative activity against human NCI-H146 cells assessed as reduction in cell viability measured after 48 hrs by MTS assay; format: functional, cell-based; conditions: NCI-H146, 48 h
# [4] = system: MOLT-4; experiment: Potency index, ratio of ABT-263 IC50 to test compound IC50 for antiproliferative activity against human MOLT-4 cells assessed as reduction in cell viability measured after 48 hrs by MTS assay; format: functional
# [5] = target: T1, Protein cereblon/Bcl-2-like protein 1 (Homo sapiens, UniProt Q07817+Q96SW2); experiment: Protac activity at CRBN/BCL-XL in human MOLT-4 cells assessed as induction of BCL-XL degradation measured after 16 hrs by immunoblotting analysis; format: cell-based
# [6] = target: T1, Protein cereblon/Bcl-2-like protein 1; experiment: Protac activity at CRBN/BCL-XL in human platelet assessed as induction of BCL-XL degradation up to 1 uM measured after 16 hrs by immunoblotting analysis; conditions: dose microM <=1, time 16.0 hrs
# [7] = target: T2, Protein cereblon/Zinc finger protein Aiolos (Homo sapiens) (UniProt Q96SW2+Q9UKT9); experiment: Protac activity at CRBN/IKZF3 in human MOLT-4 cells assessed as induction of IKZF3 degradation at 100 nM measured after 16 hrs by immunoblotting analysis; format: cell-based
# [8] = target: T1, Protein cereblon/Bcl-2-like protein 1; experiment: Protac activity at CRBN/BCL-XL in human MOLT-4 cells assessed as induction of BCL-XL degradation by measuring remaining BCL-XL level at 50 nM measured after 16 hrs by immunoblotting analysis relative to control; format: cell-based
# [9] = Ratio of IC50 for human MOLT-4 cells in presence of pomalidomide to IC50 for human MOLT-4 cells; format: functional
# [10] = system: MOLT-4; experiment: Induction of apoptosis in human MOLT-4 cells assessed as late apoptotic cells at 100 nM measured after 48 hrs by Alexa Fluor 647-Annexin V/propidium iodide staining based flow cytometry (reference value: 1.1 to 1.4%); format: functional
# [11] = system: MOLT-4; experiment: Induction of apoptosis in human MOLT-4 cells assessed as viable cells at 100 nM measured after 48 hrs by Alexa Fluor 647-Annexin V/propidium iodide staining based flow cytometry (reference value: 97.1 to 97.3%); format: functional; conditions: read-out: Activity
# [12] = Toxicity in human platelet assessed as reduction in cell viability measured after 48 hrs by MTS assay; format: tissue-based; conditions: human platelets
# [13] = target: T3, Cereblon/Ikaros (Homo sapiens) (UniProt Q96SW2+Q13422); experiment: Protac activity at CRBN/IKZF1 in human MOLT-4 cells assessed as induction of IKZF1 degradation at 10 nM measured after 16 hrs by immunoblotting analysis; format: cell-based
# [14] = system: MOLT-4; experiment: Induction of apoptosis in human MOLT-4 cells assessed as early apoptotic cells at 100 nM measured after 48 hrs in presence of pan-caspase inhibitor QVD by Alexa Fluor 647-Annexin V/propidium iodide staining based flow cytometry (reference value: 1.5 to 1.7%); format: functional
# [15] = target: T1, Protein cereblon/Bcl-2-like protein 1; experiment: Protac activity at CRBN/BCL-XL in human MOLT-4 cells assessed as induction of BCL-XL degradation at 100 nM measured within 2 hrs by immunoblotting analysis; format: cell-based
# [16] = system: MOLT-4; experiment: Induction of apoptosis in human MOLT-4 cells assessed as early apoptotic cells at 10 nM measured after 48 hrs by Alexa Fluor 647-Annexin V/propidium iodide staining based flow cytometry (reference value: 1.5 to 1.7%); format: functional
# [17] = target: T3, Cereblon/Ikaros (Homo sapiens); experiment: Protac activity at CRBN/IKZF1 in human MOLT-4 cells assessed as induction of IKZF1 degradation at 100 nM measured after 16 hrs by immunoblotting analysis; format: cell-based
# [18] = target: T1, Protein cereblon/Bcl-2-like protein 1; experiment: Protac activity at CRBN/BCL-XL in human MOLT-4 cells assessed as induction of BCL-XL degradation at 100 nM preincubated for 16 hrs followed by compound washout by immunoblotting analysis; format: cell-based
# [19] = target: T1, Protein cereblon/Bcl-2-like protein 1; experiment: Protac activity at CRBN/BCL-XL in human MOLT-4 cells assessed as induction of BCL-XL degradation at 100 nM measured after 8 hrs by immunoblotting analysis relative to control; format: cell-based
# [20] = target: Protein cereblon/Apoptosis regulator Bcl-2 (Homo sapiens) (UniProt P10415+Q96SW2); experiment: Protac activity at CRBN/BCL2 in human MOLT-4 cells assessed as induction of BCL2 degradation at 50 nM measured after 16 hrs by immunoblotting analysis; format: cell-based
# [21] = system: MOLT-4; experiment: Induction of apoptosis in human MOLT-4 cells assessed as viable cells at 10 nM measured after 48 hrs by Alexa Fluor 647-Annexin V/propidium iodide staining based flow cytometry (reference value: 97.1 to 97.3%); format: functional; conditions: read-out: Activity
# [22] = system: MOLT-4; experiment: Induction of apoptosis in human MOLT-4 cells assessed as necrotic cells at 100 nM measured after 48 hrs by Alexa Fluor 647-Annexin V/propidium iodide staining based flow cytometry (reference value: 0.3 to 0.4%); format: functional
# [23] = system: MOLT-4; experiment: Induction of apoptosis in human MOLT-4 cells assessed as late apoptotic cells at 10 nM measured after 48 hrs by Alexa Fluor 647-Annexin V/propidium iodide staining based flow cytometry (reference value: 1.1 to 1.4%); format: functional
# [24] = target: T1, Protein cereblon/Bcl-2-like protein 1; experiment: Protac activity at CRBN/BCL-XL in human MOLT-4 cells assessed as induction of BCL-XL degradation at 3.7 to 300 nM measured after 16 hrs in presence of proteasome inhibitor MG-132 by immunoblotting analysis; format: cell-based; conditions: dose 3.7-300 nM
# [25] = system: RS4-11; experiment: Antiproliferative activity against human RS4-11 cells assessed as reduction in cell viability measured after 48 hrs by MTS assay; format: functional, cell-based; conditions: RS4-11, 48 h
# [26] = system: MOLT-4; experiment: Induction of apoptosis in human MOLT-4 cells assessed as increase in cleaved PARP expression measured after 16 hrs by immunoblotting analysis; format: functional, cell-based
# [27] = system: MOLT-4; experiment: Induction of apoptosis in human MOLT-4 cells assessed as necrotic cells at 100 nM measured after 48 hrs in presence of pan-caspase inhibitor QVD by Alexa Fluor 647-Annexin V/propidium iodide staining based flow cytometry (reference value: 0.3 to 0.4%); format: functional
# [28] = system: MOLT-4; experiment: Induction of apoptosis in human MOLT-4 cells assessed as necrotic cells at 10 nM measured after 48 hrs by Alexa Fluor 647-Annexin V/propidium iodide staining based flow cytometry (reference value: 0.3 to 0.4%); format: functional
# [29] = target: T1, Protein cereblon/Bcl-2-like protein 1; experiment: Protac activity at CRBN/BCL-XL in human MOLT-4 cells assessed as induction of BCL-XL degradation at 10 to 100 nM measured after 16 hrs in presence of competitive CRBN ligand pomalidomide by immunoblotting analysis; format: cell-based; conditions: dose 10-100 nM
# [30] = system: MOLT-4; experiment: Induction of apoptosis in human MOLT-4 cells assessed as viable cells at 100 nM measured after 48 hrs in presence of pan-caspase inhibitor QVD by Alexa Fluor 647-Annexin V/propidium iodide staining based flow cytometry (reference value: 97.1 to 97.3%); format: functional; conditions: read-out: Activity
# [31] = system: MOLT-4; experiment: Induction of apoptosis in human MOLT-4 cells assessed as early apoptotic cells at 100 nM measured after 48 hrs by Alexa Fluor 647-Annexin V/propidium iodide staining based flow cytometry (reference value: 1.5 to 1.7%); format: functional
# [32] = target: T2, Protein cereblon/Zinc finger protein Aiolos (Homo sapiens); experiment: Protac activity at CRBN/IKZF3 in human MOLT-4 cells assessed as induction of IKZF3 degradation at 10 nM measured after 16 hrs by immunoblotting analysis; format: cell-based
# [33] = system: MOLT-4; experiment: Antiproliferative activity against human MOLT-4 cells assessed as reduction in cell viability measured after 48 hrs by MTS assay; format: functional, cell-based; conditions: MOLT-4, 48 h
# [34] = system: MOLT-4; experiment: Induction of apoptosis in human MOLT-4 cells assessed as late apoptotic cells at 100 nM measured after 48 hrs in presence of pan-caspase inhibitor QVD by Alexa Fluor 647-Annexin V/propidium iodide staining based flow cytometry (reference value: 1.1 to 1.4%); format: functional
structure (smiles),measurement,setting,value
CN(CCOCCOCCOCCNc1cccc2c1C(=O)N([C@@H]1CCC(=O)NC1=O)C2=O)CC[C@H](CSc1ccccc1)Nc1ccc(S(=O)(=O)NC(=O)c2ccc(N3CCN(CC4=C(c5ccc(Cl)cc5)CCC(C)(C)C4)CC3)cc2)cc1S(=O)(=O)C(F)(F)F,Ratio IC50,[1],120
same,Activity,[2],Dose-dependent effect
same,IC50,[3],25.3 nM
same,Ratio IC50,[4],22
same,Activity,[5],Dose-dependent effect
same,DC50,[5],2.5 nM
same,Activity,[6],inactive
same,Activity,[7],Active
same,Activity,[8],4%
same,Ratio IC50,[9],27
same,Activity,[10],52.7%
same,viability at 0.1 µM,[11],1.4%
same,IC50 at 48 h,[12],1220 nM
same,Activity,[13],inactive
same,Activity,[14],18.7%
same,Activity,[15],Active
same,Activity,[16],58.1%
same,Activity,[17],Active
same,Activity,[18],inactive
same,Activity,[19],> 96%
same,Activity,[20],inactive
same,viability at 0.01 µM,[21],21.9%
same,Activity,[22],0.2%
same,Activity,[23],18.7%
same,Activity,[24],inactive
same,IC50,[25],41.8 nM
same,Activity,[26],Dose-dependent effect
same,Activity,[27],1.3%
same,Activity,[28],1%
same,Activity,[29],inactive
same,viability at 0.1 µM,[30],23.1%
same,Activity,[31],45.5%
same,Activity,[32],inactive
same,IC50,[33],10.1 nM
same,Activity,[34],56.7%
